Values of other authors in patent US8586760B2, “Aminothiazole modulators of beta-3-adrenoreceptor” (Auspex Pharmaceuticals, Inc., priority 2009, dated 2013).

How the values were obtained:
[1] = molecular target: CYP3A4 (Homo sapiens, UniProt P08684)
[2] = molecular target: CYP2D6 (Homo sapiens, UniProt P10635)
[3] = poor metabolizers compared to extensive metabolizers

Sequence of CYP2D6 (P10635 whole entry): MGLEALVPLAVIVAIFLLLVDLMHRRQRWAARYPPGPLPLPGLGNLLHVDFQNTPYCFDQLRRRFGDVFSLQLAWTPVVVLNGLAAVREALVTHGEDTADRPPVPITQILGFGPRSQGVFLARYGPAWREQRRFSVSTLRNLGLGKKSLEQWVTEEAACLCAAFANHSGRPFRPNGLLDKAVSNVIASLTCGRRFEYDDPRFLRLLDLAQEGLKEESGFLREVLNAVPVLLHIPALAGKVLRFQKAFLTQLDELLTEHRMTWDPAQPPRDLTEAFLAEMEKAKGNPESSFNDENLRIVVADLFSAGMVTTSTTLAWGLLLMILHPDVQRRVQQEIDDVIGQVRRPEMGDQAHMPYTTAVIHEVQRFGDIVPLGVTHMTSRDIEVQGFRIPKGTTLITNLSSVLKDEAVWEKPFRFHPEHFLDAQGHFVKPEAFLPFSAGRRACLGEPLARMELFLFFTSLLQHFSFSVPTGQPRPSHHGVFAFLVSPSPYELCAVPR
Sequence of CYP3A4 (P08684 whole entry): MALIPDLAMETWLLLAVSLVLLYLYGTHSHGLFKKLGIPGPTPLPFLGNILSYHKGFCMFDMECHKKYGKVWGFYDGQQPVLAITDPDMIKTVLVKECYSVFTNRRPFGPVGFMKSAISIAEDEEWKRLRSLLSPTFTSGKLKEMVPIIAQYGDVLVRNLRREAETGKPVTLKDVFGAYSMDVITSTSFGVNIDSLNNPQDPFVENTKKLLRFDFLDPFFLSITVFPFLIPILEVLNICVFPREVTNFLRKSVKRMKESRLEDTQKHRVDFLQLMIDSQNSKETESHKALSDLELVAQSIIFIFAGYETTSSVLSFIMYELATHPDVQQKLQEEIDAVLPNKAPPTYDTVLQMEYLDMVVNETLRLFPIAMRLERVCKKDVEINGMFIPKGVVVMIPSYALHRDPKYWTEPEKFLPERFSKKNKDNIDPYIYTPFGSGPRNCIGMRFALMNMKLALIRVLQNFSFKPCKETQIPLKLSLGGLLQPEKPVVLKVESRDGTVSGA

Intersubject variability (poor metabolizers): generally higher
Mean Cmax [3]: slightly higher
mean AUC [3]: slightly higher
t1/2 [3]: longer
metabolism by CYP3A4 [1]: oxidative cleavage
metabolism by CYP2D6 [2]: oxidative cleavage
SMILES: Nc1nc(CC(=O)Nc2ccc(CCNC[C@H](O)c3ccccc3)cc2)cs1 [Mirabegron, 2-amino-N-[4-[2-[[(2R)-2-hydroxy-2-phenylethyl]amino]ethyl]phenyl]-4-thiazoleacetamide]
